ChEMBL document CHEMBL3885881, “DrugMatrix”

Organism: Rattus norvegicus
Experiment: DrugMatrix - Regimen: Daily Repeat
Type: toxicity, organism-based, Sprague-Dawley
Set-up: regimen Daily Repeat, gender Male, age 6-8 weeks
Settings: in vivo, sc, route subcutaneous, […]; for ABSOLUTE BASOPHIL / ABSOLUTE EOSINOPHIL / ABSOLUTE LYMPHOCYTE / ABSOLUTE MONOCYTE / ABSOLUTE SEGMENTED NEUTROPHIL / BASOPHIL / EOSINOPHIL / ERYTHROCYTE COUNT / HEMATOCRIT / HEMOGLOBIN / LEUKOCYTE COUNT / LYMPHOCYTE / MEAN CORPUSCULAR HEMOGLOBIN / MEAN CORPUSCULAR HEMOGLOBIN CONCENTRATION / MEAN CORPUSCULAR VOLUME / MONOCYTE / NEUTROPHIL / NUCLEATED RED BLOOD CELLS / PLATELET COUNT: tissue Blood; for ALANINE AMINOTRANSFERASE / ALBUMIN / ALKALINE PHOSPHATASE / ASPARTATE AMINOTRANSFERASE / BLOOD UREA NITROGEN / CARBON DIOXIDE / CHLORIDE / CHOLESTEROL / CREATINE PHOSPHOKINASE / CREATININE / GLUCOSE / LACTATE DEHYDROGENASE / LIPASE / PHOSPHORUS / POTASSIUM / SODIUM / TOTAL BILIRUBIN / TOTAL PROTEIN / URIC ACID: tissue Plasma
[1] = 2 mg/kg, 120 h, dose level Low, time 5 day
[2] = 17 mg/kg, 72 h, dose level High, time 3 day
[3] = 17 mg/kg, 120 h, dose level High, time 5 day

Structure (SMILES): CCC(=O)O[C@]1(C(=O)CCl)[C@@H](C)C[C@H]2[C@@H]3CCC4=CC(=O)C=C[C@]4(C)[C@@]3(F)[C@@H](O)C[C@@]21C [CLOBETASOL PROPIONATE]
- ABSOLUTE BASOPHIL [1]: 0 CELLS/uL
- ABSOLUTE EOSINOPHIL [1]: 128.67 CELLS/uL
- ABSOLUTE LYMPHOCYTE [1]: 583 CELLS/uL
- ABSOLUTE MONOCYTE [1]: 17.33 CELLS/uL
- ABSOLUTE SEGMENTED NEUTROPHIL [1]: 7437.67 CELLS/uL
- BASOPHIL [1]: 0%
- EOSINOPHIL [1]: 1.33%
- ERYTHROCYTE COUNT [1]: 6.32 x10E6/uL
- HEMATOCRIT [1]: 40.2%
- HEMOGLOBIN [1]: 14.5 G/DL
- LEUKOCYTE COUNT [1]: 8.17 x10E3/uL
- LYMPHOCYTE [1]: 6.67%
- MEAN CORPUSCULAR HEMOGLOBIN [1]: 23.07 pg
- MEAN CORPUSCULAR HEMOGLOBIN CONCENTRATION [1]: 36.1 G/DL
- MEAN CORPUSCULAR VOLUME [1]: 63.83 fL
- MONOCYTE [1]: 0.33%
- NEUTROPHIL [1]: 91.67%
- NUCLEATED RED BLOOD CELLS [1]: 0 /100WBC
- PLATELET COUNT [1]: 805.67 x10E3/uL
- ALANINE AMINOTRANSFERASE [1]: 191.67 u/L
- ALBUMIN [1]: 4.53 G/DL
- ALKALINE PHOSPHATASE [1]: 392 u/L
- ASPARTATE AMINOTRANSFERASE [1]: 342 u/L
- BLOOD UREA NITROGEN [1]: 24.33 mg/dL
- CARBON DIOXIDE [1]: 19.67 mmol/L
- CHLORIDE [1]: 102.67 MEQ/L
- CHOLESTEROL [1]: 160 mg/dL
- CREATINE PHOSPHOKINASE [1]: 1604 u/L
- CREATININE [1]: 0.28 mg/dL
- GLUCOSE [1]: 604.67 mg/dL
- LACTATE DEHYDROGENASE [1]: 516.33 u/L
- LIPASE [1]: 10.33 u/L
- PHOSPHORUS [1]: 11.93 mg/dL
- POTASSIUM [1]: 4.7 MEQ/L
- SODIUM [1]: 143.1 MEQ/L
- TOTAL BILIRUBIN [1]: 0.7 mg/dL
- TOTAL PROTEIN [1]: 6.67 G/DL
- URIC ACID [1]: 0.9 mg/dL
- ABSOLUTE BASOPHIL [2]: 0 CELLS/uL
- ABSOLUTE EOSINOPHIL [2]: 24 CELLS/uL
- ABSOLUTE LYMPHOCYTE [2]: 383 CELLS/uL
- ABSOLUTE MONOCYTE [2]: 0 CELLS/uL
- ABSOLUTE SEGMENTED NEUTROPHIL [2]: 2026.33 CELLS/uL
- BASOPHIL [2]: 0%
- EOSINOPHIL [2]: 1%
- ERYTHROCYTE COUNT [2]: 5.77 x10E6/uL
- HEMATOCRIT [2]: 36.77%
- HEMOGLOBIN [2]: 13.07 G/DL
- LEUKOCYTE COUNT [2]: 2.43 x10E3/uL
- LYMPHOCYTE [2]: 15.67%
- MEAN CORPUSCULAR HEMOGLOBIN [2]: 22.7 pg
- MEAN CORPUSCULAR HEMOGLOBIN CONCENTRATION [2]: 35.57 G/DL
- MEAN CORPUSCULAR VOLUME [2]: 63.9 fL
- MONOCYTE [2]: 0%
- NEUTROPHIL [2]: 83.33%
- NUCLEATED RED BLOOD CELLS [2]: 0 /100WBC
- PLATELET COUNT [2]: 1160 x10E3/uL
- ALANINE AMINOTRANSFERASE [2]: 95 u/L
- ALBUMIN [2]: 5.23 G/DL
- ALKALINE PHOSPHATASE [2]: 460.67 u/L
- ASPARTATE AMINOTRANSFERASE [2]: 128.33 u/L
- BLOOD UREA NITROGEN [2]: 25.67 mg/dL
- CARBON DIOXIDE [2]: 23.33 mmol/L
- CHLORIDE [2]: 101.5 MEQ/L
- CHOLESTEROL [2]: 162.67 mg/dL
- CREATINE PHOSPHOKINASE [2]: 209.33 u/L
- CREATININE [2]: 0.29 mg/dL
- GLUCOSE [2]: 571.33 mg/dL
- LACTATE DEHYDROGENASE [2]: 160.33 u/L
- LIPASE [2]: 10.5 u/L
- PHOSPHORUS [2]: 10 mg/dL
- POTASSIUM [2]: 4.82 MEQ/L
- SODIUM [2]: 141.8 MEQ/L
- TOTAL BILIRUBIN [2]: 0.2 mg/dL
- TOTAL PROTEIN [2]: 7.47 G/DL
- URIC ACID [2]: 0.4 mg/dL
- ABSOLUTE BASOPHIL [3]: 0 CELLS/uL
- ABSOLUTE EOSINOPHIL [3]: 214.67 CELLS/uL
- ABSOLUTE LYMPHOCYTE [3]: 340.67 CELLS/uL
- ABSOLUTE MONOCYTE [3]: 76.33 CELLS/uL
- ABSOLUTE SEGMENTED NEUTROPHIL [3]: 17401.67 CELLS/uL
- BASOPHIL [3]: 0%
- EOSINOPHIL [3]: 1%
- ERYTHROCYTE COUNT [3]: 6.25 x10E6/uL
- HEMATOCRIT [3]: 38.87%
- HEMOGLOBIN [3]: 14.47 G/DL
- LEUKOCYTE COUNT [3]: 18.03 x10E3/uL
- LYMPHOCYTE [3]: 2%
- MEAN CORPUSCULAR HEMOGLOBIN [3]: 23.17 pg
- MEAN CORPUSCULAR HEMOGLOBIN CONCENTRATION [3]: 37.23 G/DL
- MEAN CORPUSCULAR VOLUME [3]: 62.2 fL
- MONOCYTE [3]: 0.33%
- NEUTROPHIL [3]: 96.67%
- NUCLEATED RED BLOOD CELLS [3]: 0 /100WBC
- PLATELET COUNT [3]: 927.33 x10E3/uL
- ALANINE AMINOTRANSFERASE [3]: 204.67 u/L
- ALBUMIN [3]: 3.67 G/DL
- ALKALINE PHOSPHATASE [3]: 242.33 u/L
- ASPARTATE AMINOTRANSFERASE [3]: 271.33 u/L
- BLOOD UREA NITROGEN [3]: 24.67 mg/dL
- CARBON DIOXIDE [3]: 22 mmol/L
- CHLORIDE [3]: 99.33 MEQ/L
- CHOLESTEROL [3]: 122.33 mg/dL
- CREATINE PHOSPHOKINASE [3]: 1143.67 u/L
- CREATININE [3]: 0.2 mg/dL
- GLUCOSE [3]: 515.33 mg/dL
- LACTATE DEHYDROGENASE [3]: 439.33 u/L
- LIPASE [3]: 9.67 u/L
- PHOSPHORUS [3]: 12.77 mg/dL
- POTASSIUM [3]: 4.7 MEQ/L
- SODIUM [3]: 140.6 MEQ/L
- TOTAL BILIRUBIN [3]: 0.73 mg/dL
- TOTAL PROTEIN [3]: 5.7 G/DL
- URIC ACID [3]: 1.07 mg/dL
